Test results: US20220306728A1 (priority 2019, published 2022)
Like-named read-outs stand apart in the source and are kept apart here.

Legend:
Assay in all cases: microbe, parasite or virus in culture
H3N2 and H1N1 strains = format: cell-based, influenza A virus
H3N2 virus = format: cell-based; settings: Influenza A virus, H3N2, MDCK
H1N1 virus = format: cell-based; settings: Influenza A virus, H1N1, MDCK

Compound: COC(=O)OCOc1c2n(ccc1=O)N([C@@H]1c3ccccc3SCc3c1ccc(F)c3F)[C@@H]1COCCN1C2=O [baloxavir marboxil, reference compound]
- IC50 (H3N2 and H1N1 strains; read-out: IC50): 2.3 to 4.9 nM

Compound: CCOC(=O)C1=C[C@@H](OC(CC)CC)[C@H](NC(C)=O)[C@@H](N)C1 [oseltamivir]
- IC50 (H3N2 virus): 7 nM
- IC50 (H1N1 virus): 9.1 nM

Compound: CC(=O)N[C@H]1[C@H]([C@H](O)[C@H](O)CO)OC(C(=O)O)=C[C@@H]1N=C(N)N [zanamivir, reference compound]
- IC50 (H3N2 and H1N1 strains; Influenza A virus, MDCK): 10.7 to 13.7 nM
